Converted amounts (≈) assume the structure as drawn.
Tests used:
Sortilin (Homo sapiens) = Sortilin (Homo sapiens) (UniProt Q99523); assay: Displacement of [3H]-neurotensin from sortilin (unknown origin) at 50 uM incubated 30 mins prior to [3H]-neurotensin addition measured after 6 hrs by scintillation proximity assay
Sortilin = molecular target: T1, Sortilin (Homo sapiens, UniProt Q99523)
T1 sequence (Q99523 whole entry): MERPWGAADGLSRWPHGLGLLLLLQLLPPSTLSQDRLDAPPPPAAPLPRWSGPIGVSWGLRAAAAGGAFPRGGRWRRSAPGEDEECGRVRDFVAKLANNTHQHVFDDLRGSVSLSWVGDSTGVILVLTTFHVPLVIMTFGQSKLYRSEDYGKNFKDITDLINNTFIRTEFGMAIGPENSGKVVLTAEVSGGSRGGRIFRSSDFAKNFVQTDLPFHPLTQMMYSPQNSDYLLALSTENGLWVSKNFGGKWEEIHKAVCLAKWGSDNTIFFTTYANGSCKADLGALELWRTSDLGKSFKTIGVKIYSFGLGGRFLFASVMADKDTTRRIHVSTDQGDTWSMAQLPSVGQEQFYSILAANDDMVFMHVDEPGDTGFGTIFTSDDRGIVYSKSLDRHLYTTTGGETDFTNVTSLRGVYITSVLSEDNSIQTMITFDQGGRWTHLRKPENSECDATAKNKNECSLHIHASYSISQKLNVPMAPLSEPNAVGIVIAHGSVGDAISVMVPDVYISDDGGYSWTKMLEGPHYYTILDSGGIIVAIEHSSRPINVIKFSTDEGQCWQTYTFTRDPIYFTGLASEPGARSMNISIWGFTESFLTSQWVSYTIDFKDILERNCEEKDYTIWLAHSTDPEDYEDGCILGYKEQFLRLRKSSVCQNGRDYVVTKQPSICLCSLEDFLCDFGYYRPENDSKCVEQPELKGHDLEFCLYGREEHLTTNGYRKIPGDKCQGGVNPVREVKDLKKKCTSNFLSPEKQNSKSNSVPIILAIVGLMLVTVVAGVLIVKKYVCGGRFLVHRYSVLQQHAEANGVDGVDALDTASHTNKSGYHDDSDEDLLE

[1] = Intrinsic clearance in rat; assay type: ADME, organism-based; conditions: in vivo
[2] = Blood clearance in rat at 1 mg/kg, iv; assay type: ADME, organism-based; design: dose 1 mg/kg, route intravenous; conditions: whole blood
[3] = Half life in rat at 1 mg/kg, iv; assay type: ADME, organism-based; design: dose 1 mg/kg, route intravenous; conditions: in vivo
[4] = Free plasma concentration in rat; assay type: ADME, cell-free
[5] = Cmax in rat at 2 mg/kg, po; assay type: ADME, organism-based; design: dose 2 mg/kg, route oral; conditions: in vivo
[6] = Solubility of the compound; assay type: physicochemical
[7] = Volume of distribution at steady state in rat at 1 mg/kg, iv; assay type: ADME, organism-based; design: dose 1 mg/kg, route intravenous; conditions: in vivo, read-out: Vdss
[8] = Oral bioavailability in rat at 2 mg/kg; assay type: ADME, organism-based; conditions: in vivo

Structure (SMILES) | inhibition (Sortilin (Homo sapiens)) [%] | further results
O=C(O)c1cc(Br)ccc1C(=O)Nc1ccccc1 | 69 | 
Cc1cc(=O)oc2c(CN[C@@H](CC(C)C)C(=O)O)c(O)ccc12 |  | IC50 (Sortilin): 4 µM
CC(C)NC(=O)c1ccc(Br)cc1C(=O)O | 35 | 
Cc1cccc(NC(=O)c2ccc(C(F)(F)F)cc2C(=O)O)n1 |  | CLint scaled [1]: 6.67 mL/min/kg; clearance [2]: 0.5 mL/min/kg; half-life [3]: 1.2 h; fraction unbound [4]: 0.02; Cmax [5]: 12800 ng/mL; solubility [6]: 134 µg/mL (≈ 413 µM); Vd [7]: 0.02 L/kg; bioavailability [8]: 35%
Cc1cccc(NC(=O)c2c(C)cccc2C(=O)O)n1 | 43 | 
Cc1cccnc1NC(=O)c1ccc(Br)cc1C(=O)O | 64 | 
Cc1cccc(NC(=O)c2ccccc2C(=O)O)n1 | 15 | 
Cc1cccc(NC(=O)c2cccc(C)c2C(=O)O)n1 | 5 | 
CCC(C)NC(=O)c1ccc(Br)cc1C(=O)O (stereo not given) | 30 | 
Cc1cccc(NC(=O)c2ccc(-c3ccccc3)cc2C(=O)O)n1 | 2 | 
Cc1cccc(NC(=O)c2cc(Cl)ccc2C(=O)O)n1 | 69 | 
Cc1ccc(NC(=O)c2ccc(Br)cc2C(=O)O)cn1 | 70 | 
Cc1ccc(C(=O)O)c(C(=O)Nc2cccc(C)n2)c1 | 57 | 

From ChEMBL document CHEMBL3098109, “The identification of AF38469: an orally bioavailable inhibitor of the VPS10P family sorting receptor Sortilin” (Bioorg Med Chem Lett, 2014)
